Data published in PMC4105520, “Effects of a novel cyclic RGD peptidomimetic on cell proliferation, migration and angiogenic activity in human endothelial cells” (Vascular Cell, 2014).

What was measured:
[1] = system: αv integrin subunit mRNA in HUVEC; assay: Real time PCR, mRNA of integrin subunit αv; format: cell-based, human; conditions: 1 μM, 5 h, mean ± SD of 3 experiments; for αv mRNA, 2^-Δct ×10^2: GAPDH housekeeping
Description: (§1) Cells were treated for 5 h in the presence or absence of 1 μM cyclo[DKP-RGD] 1 in different growth conditions, as previously described. At the end of the treatment, RNA extraction was performed using the Qiazol lysis reagent. Primers were designed by using the “Primer3 input” software (http://frodo.wi.mit.edu/cgi-bin/primer3/primer3.cgi/primer3_www.cgi) and the specificity of each primer was controlled by the BLAST software (http://blast.ncbi.nlm.nih.gov) (Table 1). Real time PCR was performed as previously reported At the end of the reaction, a melting curve analysis was carried out to check for the presence of primer-dimers. Comparison of the expression of each gene was determined by using GAPDH as housekeeping gene. Each run was analyzed in duplicate and data are finally expressed as 2^-Δct.

[2] = system: ovarian carcinoma IGROV-1; conditions: cited from earlier work
[3] = system: Akt phosphorylation in HUVEC; assay: Western blot analysis of Akt phosphorylation; format: cell-based, human; conditions: 5 h
Description: Cells grown in 60-mm dishes were treated for 5 h with 1 μM cyclo[DKP-RGD] 1. The cells were then rinsed twice in ice-cold PBS and 200 μl of the cell lysis buffer (composition: 50 mM Tris–HCl pH 7.4, 1% v/v NP40, 0.25% w/v sodium deoxycholate, 1 mM phenylmethylsulphonyl-fluoride, 1 mM Na3VO4, 1 mM EDTA, 30 mM sodium pyrophosphate, 1 mM NaF, 1 mg/ml leupeptin, 1 mg/ml pepstatin A, 1 mg/ml aprotinin and 1 mg/ml microcystin) was added to the dishes. After scraping, cells were sonicated for 10 s, centrifuged at 12000 g for 5 min at 4°C and the amount of proteins in the supernatant was measured using the BCA protein assay. For western blot analysis, 20 μg of proteins were separated by 10% SDS–PAGE at 150 V for 2 h and blotted onto […] nitrocellulose membranes at 90 mA for 16 h. The membranes were first blocked for 2 h in TRIS buffered saline solution (TBST, composition: TRIS 10 mM, NaCl 150 mM, 0.1% Tween 20) plus 5% low fat dry milk (TBSTM) and then incubated with the appropriate antibody diluted 1:1000 in TBSTM, for 16 h at 4°C under gentle agitation. The membranes were rinsed three times in TBST and then incubated for 2 h at 21°C with the secondary antibody diluted 1:10000 in TBSTM. Membranes were then rinsed three times in TBST and luminescence was detected by using the appropriate kit, and densitometric analysis was performed as previously reported.

αvβ3 integrin = conditions: read-out: IC50, inhibition of vitronectin binding to αvβ3 integrin; cited from earlier work
Excerpt: (§2) HUVEC represent a valid in vitro model which provides seminal insights into the cellular and molecular events leading to neovascularization in response to inflammation and hypoxia in cancer, ischemic events, and in embryogenesis. As anticipated in the introduction, integrins are key actors in angiogenesis and vascular homeostasis, acting as promoters of endothelial cell-matrix interactions. It has been recognized that pharmacological inhibition of the αvβ3 subtype suppresses angiogenesis in many experimental models and αvβ3 antagonists (i.e. antibodies, peptides and peptidomimeti ...

αvβ5 integrin = conditions: read-out: IC50, inhibition of vitronectin binding to αvβ5 integrin; cited from earlier work
Excerpt: as §2

[4] = system: human pancreatic carcinoma MIA-PaCa2; conditions: cited from earlier work
HUVEC [5] = assay: Cell viability by flow cytometry, annexin V/PI staining; conditions: 24 h, mean ± SD, n = 4, P > 0.05 vs control
HUVEC [6] = assay: Cell migration, Boyden chamber assay; format: cell-based, human; conditions: for effect on spontaneous migration / effect on stimulated migration: 5 h at 37°C; for effect on stimulated migration: VEGF, EGF, IGF-I and FGF2 in bottom chamber
Description: Cell migration was measured by means of a Boyden chamber assay. Briefly, 1×10^5 HUVEC were seeded in the top well of the Boyden chamber, cyclo[DKP-RGD] 1 was added in the bottom or in the top compartment, and a 3 μm-pore cellulose nitrate filter was placed between the two compartments. Stimulated migration was assessed by putting VEGF, EGF, IGF-I, and FGF2 in the bottom chamber. After an incubation period of 5 h at 37°C, the filter was recovered, dehydrated, fixed, and finally stained with hematoxylin. Migration into the filter was quantified by measuring the distance (in μm) from the surface of the filter to the leading front of cells using an optical microscope (Axiolab, Carl Zeiss S.p.A. Milan, Italy).

HUVEC [7] = system: HUVEC
HUVEC [8] = assay: Proliferation assay, ELISA of BrdU incorporation; format: cell-based, human; conditions: 24 h, data not shown
Description: To assess HUVEC proliferation, 1×10^4 cells were seeded in duplicate in a 96-well plate and cultured for 24 h without or with cyclo[DKP-RGD] 1 at different concentrations. Proliferation was then measured by a colorimetric immunoassay, based on the ELISA measurement of bromodeoxyuridine (BrdU) incorporation during DNA synthesis. The absorbance (ABS) of the samples was determined by means of a spectrophotometer (Model 680, Bio-Rad Laboratories, Hercules, CA, USA) with wavelength set at 450 nm, and finally expressed as the difference between BrdU positive and negative samples, expressed as Optical Density (O.D.).

[9] = system: β3 integrin subunit mRNA in HUVEC; assay: Real time PCR, mRNA of integrin subunit β3; format: cell-based, human; conditions: 1 μM, 5 h, mean ± SD of 3 experiments; for β3 mRNA, 2^-Δct ×10^2: GAPDH housekeeping
Description: as §1

[10] = system: β5 integrin subunit mRNA in HUVEC; assay: Real time PCR, mRNA of integrin subunit β5; format: cell-based, human; conditions: 1 μM, 5 h, mean ± SD of 3 experiments; for β5 mRNA, 2^-Δct ×10^2: GAPDH housekeeping
Description: as §1

HUVEC [11] = assay: Angiogenesis assay, network formation on Matrigel; format: cell-based, human; conditions: 5 h
Description: To assess angiogenic activity, HUVEC 2.5×10^4 cells were seeded in a 24-well plate coated with 100 μl/well of Matrigel previously polymerized for 1 h at 37°C. […] 1 under either resting or stimulated conditions. In some experiments IL-8 (10 nM) was used as pro-angiogenic stimulus. Network formation was evaluated by phase‒contrast microscopy using a fluorescence microscope (Axiovert 40CFL, Carl Zeiss S.p.A. Milan, Italy). Network formation was finally quantified in terms of mean number of loops per field as topological parameters and the total length of the branches. For the purpose of the analysis, loops were defined as any complete ring formed by HUVEC, while open ramifications were considered as branches. The total branch length (pixels) and the number of loops were quantified using the ImageJ image analysis software (http://rsbweb.nih.gov/ij/).

[12] = system: human pancreatic carcinoma PANC-1; conditions: cited from earlier work
ovarian carcinoma SKOV3 = conditions: cited from earlier work
human osteosarcoma U2-OS = conditions: cited from earlier work
[13] = in the same or very close concentration range as the anti-angiogenic activity; cited from earlier work
Description: In our experiments, the effects of cyclo[DKP-RGD] 1 on HUVEC activity were tested in resting conditions as well as in the presence of a culture medium enriched with growth factors known to promote angiogenesis such as VEGF, EGF, IGF-I and FGF2 or after addition of the pro-inflammatory chemokine IL-8, which has a key role in the regulation of pathological angiogenesis. According to our results, cyclo[DKP-RGD]

For cyclo[DKP-RGD] [cyclo[DKP-RGD] 1], the “αv mRNA, 2^-Δct ×10^2” value ([1]; basal conditions) was 6.59 ± 5.24, the “αv mRNA, Ratio vs Control” value ([1]; basal conditions) was 1.32 ± 0.57 and the “αv mRNA, 2^-Δct ×10^2” value ([1]; with VEGF, EGF, IGF, and FGF) was 15.09 ± 10.66. The “αv mRNA, Ratio vs Control” value ([1]; with VEGF, EGF, IGF, and FGF) was 1.28 ± 0.42, the cytotoxic effects [2] was “lack of cytotoxic effects” and the “phosphorylated Akt, % of control” value ([3]; basal conditions, 1×10^−6 M, n = 3, P = 0.001) was 53.2 ± 7.9 % of control. For the same substance, the “phosphorylated Akt” value ([3]; basal conditions, 1×10^−6 M, n = 3, P = 0.001, control 16241.7 ± 1763.3) was 8702.7 ± 2008.7 optical density arbitrary units, the “phosphorylated Akt” value ([3]; with VEGF, EGF, IGF-I, and FGF2, 1×10^−6 M, n = 3, P = 0.735, control 15406.0 ± 1218.8) was 15174.7 ± 663.9 optical density arbitrary units and the IC50 (αvβ3 integrin) was 4.5 ± 1.1 nM. For the same substance, the IC50 (αvβ5 integrin) was 149 ± 25 nM, the cytotoxic effects [4] was “lack of cytotoxic effects” and the “viable cells (ANX-/PI-)” value (HUVEC [5]; basal conditions, 1×10^−6 M) was 85.4 ± 3.4%. For the same substance, the “viable cells (ANX-/PI-)” value (HUVEC [5]; with VEGF, EGF, IGF-I and FGF2, 1×10^−6 M) was 86.8 ± 9.2%, the “concentration of the peak of the bell-shaped effect on migration” value (HUVEC [6]; Boyden chamber, not observed in the angiogenesis assay) was “about 1×10^−9 M” and the “effect on spontaneous migration” value (HUVEC [6]; compound in bottom chamber) was “increased”. The “effect on stimulated migration” value (HUVEC [6]; compound in bottom chamber) was “increased”, the “effect on spontaneous migration” value (HUVEC [6]; compound in top chamber together with cells) was “increased” and the “effect on stimulated migration” value (HUVEC [6]; compound in top chamber) was “decreased”. The “effect on percentage of viable, early apoptotic, late apoptotic/necrotic or necrotic cells” value (HUVEC [7]) was “did not affect”, the “effect on basal proliferation (BrdU incorporation)” value (HUVEC [8]; basal conditions, up to 1×10^−5 M) was “did not significantly affect” and the “effect on stimulated proliferation (BrdU incorporation)” value (HUVEC [8]; with VEGF, EGF, IGF-I and FGF2, up to 1×10^−5 M) was “did not significantly affect”. For the same substance, the “β3 mRNA, 2^-Δct ×10^2” value ([9]; basal conditions) was 0.91 ± 0.76, the “β3 mRNA, Ratio vs Control” value ([9]; basal conditions) was 1.08 ± 0.27 and the “β3 mRNA, 2^-Δct ×10^2” value ([9]; with VEGF, EGF, IGF, and FGF) was 1.41 ± 1.07. The “β3 mRNA, Ratio vs Control” value ([9]; with VEGF, EGF, IGF, and FGF) was 1.43 ± 0.35, the “β5 mRNA, 2^-Δct ×10^2” value ([10]; basal conditions) was 1.52 ± 1.34 and the “β5 mRNA, Ratio vs Control” value ([10]; basal conditions) was 1.08 ± 0.07. The “β5 mRNA, 2^-Δct ×10^2” value ([10]; with VEGF, EGF, IGF, and FGF) was 1.31 ± 1.13, the “β5 mRNA, Ratio vs Control” value ([10]; with VEGF, EGF, IGF, and FGF) was 1.34 ± 0.46 and the “effect on angiogenesis induced by IL-8” value (HUVEC [11]; IL-8 10 nM, P < 0.01 vs control) was “significantly and profoundly decreased”. For the same substance, the “effect on angiogenesis (network formation: loops, branch length)” value (HUVEC [11]; basal conditions) was “did not significantly affect”, the “effect on angiogenesis induced by VEGF, EGF, IGF-I, and FGF2” value (HUVEC [11]; stimulated conditions, P < 0.01 vs control) was “significantly and profoundly decreased” and the cytotoxic effects [12] was “lack of cytotoxic effects”. For the same substance, the cytotoxic effects (ovarian carcinoma SKOV3) was “lack of cytotoxic effects” and the cytotoxic effects (human osteosarcoma U2-OS) was “lack of cytotoxic effects”.

For “cyclo-[Arg-Gly-Asp-D-Phe-N(Me)-Val] (head to tail) [cilengitide]”, the cytotoxic activity [13] is listed as “exhibit cytotoxic activity”.
